Assay results published in patent US10377741B2, “Substituted heteroaryl aldehyde compounds and methods for their use in increasing tissue oxygenation” (Global Blood Therapeutics, Inc., priority 2011, dated 2019).

Target: T1, purified Hemoglobin S (HbS) (Homo sapiens, UniProt P68871+P69905, E7V)
T1 construct: HbS was purified by a modified procedure; from tissue; host or cells: blood of homozygous sickle cell patients (CHORI); for the polymerization assay purified by the CRO VIRUSYS
Assay: Modulation of hemoglobin oxygen affinity: oxygen equilibrium curves (HEMOX) in purified HbS
Type: biochemical, human (homozygous sickle cell patients)
Conditions: compound at 30 μM; 25 μM purified HbS, 45 min at 37° C.
Experimental: Oxygen equilibrium curves (OEC) in purified Hemoglobin S (HbS) were measured by the change in p50, the partial pressure of oxygen at which the heme binding sites in the HbS sample are 50% saturated with oxygen. HbS was purified by a modified procedure (Antonini and Brunori, 1971; Heomoglobin and Myoglobin in their Reactions with Ligands; North Holland Publishing Company; Amsterdam, London) from blood obtained from homozygous sickle cell patients though the Hemoglobinopathy Center at Children's Hospital Oakland Research Institute (CHORI) with Institutional Review Board approval. Oxygen equilibrium curves were carried out with a HEMOX analyzer, (TCS Scientific, New Hope, Pa.). Five hundred μL of 250 μM purified HbS were diluted into 4.5 mL of HEMOX buffer (30 mM TES, 130 mM NaCl, 5 mM KCl, pH=7.4) resulting in a final hemoglobin concentration of 25 μM. The compounds were added at the final desired concentrations. The mixture was incubated for 45 min at 37° C. and then transferred to the Hemox sample chamber. The samples were saturated with oxygen by flushing with compressed air for 10 minutes. The samples were then flushed with pure nitrogen and the absorbance of deoxy-Hb was recorded as a function of the solution pO2. The oxygen equilibrium data was then fit to the Hill Model to obtain values for p50. The deoxygenation curves for both HbS alone (control) and HbS in the presence of compound were collected with the TCS software. The p50 for purified Hbs was typically 13.8±1.6. Delta p50 values were obtained from the p50 value for control minus the p50 value for HbS treated with compound divided by the p50 value for the control.
The compounds of Table 1 that were where tested in the assay above were all found to have positive delta p50 values. Delta p50% is calculated from [[p50(HbS) −p50(HbS treated with compound)]/p50(HbS)]×100. Table 2 below lists the delta p50% values where + indicates a delta p50% of between 0 and 29, ++ indicates a delta p50% of between 30 and 50, and +++ indicates a delta p50% of 50 or greater. Unless noted otherwise, the compounds in Table 2 were tested at 30 μM.

Delta p50%, + (a delta p50% of between 0 and 29):
COc1cc(C=O)c(OCc2ccc3ccncc3c2)cn1 [Compound 82, 5-(isoquinolin-7-ylmethoxy)-2-methoxyisonicotinaldehyde]
Cc1ccc(OCc2ccc3ccncc3c2)c(C=O)n1 [Compound 83, 3-(isoquinolin-7-ylmethoxy)-6-methylpicolinaldehyde]
Cc1ccc(OCc2cccc3c2cnn3C)c(C=O)n1 [Compound 85, 6-methyl-3-((1-methyl-1H-indazol-4-yl)methoxy)picolinaldehyde]
COc1cc(C=O)c(OCc2cccc3[nH]ncc23)cn1 [Compound 87, 5-((1H-indazol-4-yl)methoxy)-2-methoxyisonicotinaldehyde]
Cc1ccc(OCc2cccc3[nH]ncc23)c(C=O)n1 [Compound 88, 3-((1H-indazol-4-yl)methoxy)-6-methylpicolinaldehyde]
COc1ccc(OCc2ccc3cnn(C)c3c2)c(C=O)n1 [Compound 89, 6-methoxy-3-((1-methyl-1H-indazol-6-yl)methoxy)picolinaldehyde]
COc1cc(C=O)c(OCc2cccc3cnn(C)c23)cn1 [Compound 90, 2-methoxy-5-((1-methyl-1H-indazol-7-yl)methoxy)isonicotinaldehyde]
Cc1ccc(OCc2ccc3ccccc3n2)c(C=O)n1 [Compound 94, 6-methyl-3-(quinolin-2-ylmethoxy)picolinaldehyde]
COc1cc(C=O)c(OCc2cnccc2-c2cn[nH]c2)cn1 [Compound 95, 5-((4-(1H-pyrazol-4-yl)pyridin-3-yl)methoxy)-2-methoxyisonicotinaldehyde]
COc1cc(C=O)c(OCc2cc(Br)cn3ccnc23)cn1 [Compound 96, 5-((6-bromoimidazo[1,2-a]pyridin-8-yl)methoxy)-2-methoxyisonicotinaldehyde]
COc1cc(C=O)c(OCc2cc(C#N)cn3ccnc23)cn1 [Compound 97, 8-((4-formyl-6-methoxypyridin-3-yloxy)methyl)imidazo[1,2-a]pyridine-6-carbonitrile]
COc1cc(C=O)c(OCc2cncc(C#N)c2)cn1 [Compound 98, 5-((4-formyl-6-methoxypyridin-3-yloxy)methyl)nicotinonitrile]
Cc1ccc(OCc2cccc3ocnc23)c(C=O)n1 [Compound 99, 3-(benzo[d]oxazol-4-ylmethoxy)-6-methylpicolinaldehyde]
COc1cc(C=O)c(OCc2cc(C(N)=O)cn3ccnc23)cn1 [Compound 100, 8-((4-formyl-6-methoxypyridin-3-yloxy)methyl)imidazo[1,2-a]pyridine-6-carboxamide]
COc1cc(C=O)c(OCc2cncc(C(N)=O)c2)cn1 [Compound 101, 5-((4-formyl-6-methoxypyridin-3-yloxy)methyl)nicotinamide]
COc1cc(C=O)c(OCc2cc(-c3cn[nH]c3)cn3ccnc23)cn1 [Compound 102, 5-((6-(1H-pyrazol-4-yl)imidazo[1,2-a]pyridin-8-yl)methoxy)-2-methoxyisonicotinaldehyde]
COc1cc(C=O)c(OCc2cc(-c3ccn[nH]3)cn3ccnc23)cn1 [Compound 104, 5-((6-(1H-pyrazol-5-yl)imidazo[1,2-a]pyridin-8-yl)methoxy)-2-methoxyisonicotinaldehyde]
COc1cc(C=O)c(OCc2ccnc3cccnc23)cn1 [Compound 105, 5-((1,5-naphthyridin-4-yl)methoxy)-2-methoxyisonicotinaldehyde]
COc1cc(C=O)c(OCc2ccc3[nH]ncc3c2)cn1 [Compound 107, 5-((1H-indazol-5-yl)methoxy)-2-methoxyisonicotinaldehyde]
Cc1ccc(OCc2ccc3c(c2)c(Cl)nn3C)c(C=O)n1 [Compound 109, 3-((3-chloro-1-methyl-1H-indazol-5-yl)methoxy)-6-methylpicolinaldehyde]
COc1cc(C=O)c(OCc2ccc3c(cnn3C)c2)cn1 [Compound 110, 2-methoxy-5-((1-methyl-1H-indazol-5-yl)methoxy)isonicotinaldehyde]
COc1cc(C=O)c(OCc2ccc3c(c2)c(Cl)nn3C)cn1 [Compound 111]
COc1cc(C=O)c(NC(=O)c2cccn3ccnc23)cn1 [Compound 112, N-(4-formyl-6-methoxypyridin-3-yl)imidazo[1,2-a]pyridine-8-carboxamide]
Cc1ccc(OCc2ccnc3c2c(C)nn3C)c(C=O)n1 [Compound 113, 3-((1,3-dimethyl-1H-pyrazolo[3,4-b]pyridin-4-yl)methoxy)-6-methylpicolinaldehyde]
COc1cc(C=O)c(OCc2ccnc3c2c(C)nn3C)cn1 [Compound 114, 5-((1,3-dimethyl-1H-pyrazolo[3,4-b]pyridin-4-yl)methoxy)-2-methoxyisonicotinaldehyde]
COc1cc(C=O)c(OCc2cc3ccccc3nc2Cl)cn1 [Compound 116, 5-((2-chloroquinolin-3-yl)methoxy)-2-methoxyisonicotinaldehyde]
COc1cc(C=O)c(OCc2cc3ccccc3nc2-c2ccn[nH]2)cn1 [Compound 117]
COc1cc(C=O)c(OCc2cnc3ccccc3n2)cn1 [Compound 118, 2-methoxy-5-(quinoxalin-2-ylmethoxy)isonicotinaldehyde]
Cc1ccc(OCc2cnc3c(cnn3C)c2)c(C=O)n1 [Compound 121, 6-methyl-3-((1-methyl-1H-pyrazolo[3,4-b]pyridin-5-yl)methoxy)picolinaldehyde]
COc1cc(C=O)c(OCc2cnc3c(cnn3C)c2)cn1 [Compound 122, 2-methoxy-5-((1-methyl-1H-pyrazolo[3,4-b]pyridin-5-yl)methoxy)isonicotinaldehyde]
COc1cc(C=O)c(OCc2c(-c3cc[nH]n3)ccn3cncc23)cn1 [Compound 123, 5-((7-(1H-pyrazol-3-yl)imidazo[1,5-a]pyridin-8-yl)methoxy)-2-methoxyisonicotinaldehyde]
COc1cc(C=O)c(OCc2cncc(-c3nn[nH]n3)c2)cn1 [Compound 124, 5-((5-(2H-tetrazol-5-yl)pyridin-3-yl)methoxy)-2-methoxyisonicotinaldehyde]
COc1cc(C=O)c(OCc2cc(-c3nn[nH]n3)cn3ccnc23)cn1 [Compound 125, 5-((6-(2H-tetrazol-5-yl)imidazo[1,2-a]pyridin-8-yl)methoxy)-2-methoxyisonicotinaldehyde]
CCOC(=O)C1CSC(c2cc(OC)ncc2OCc2cccn3ccnc23)N1 (stereo not drawn) [Compound 126, ethyl 2-(5-(imidazo[1,2-a]pyridin-8-ylmethoxy)-2-methoxypyridin-4-yl)thiazolidine-4-carboxylate]
COc1cc(C=O)c(OCc2cccnc2-c2cnn(C)c2)cn1 [Compound 127, 2-methoxy-5-((2-(1-methyl-1H-pyrazol-4-yl)pyridin-3-yl)methoxy)isonicotinaldehyde]
COc1cc(C=O)c(OCc2cccnc2-c2cn[nH]c2)cn1 [Compound 128, 5-((2-(1H-pyrazol-4-yl)pyridin-3-yl)methoxy)-2-methoxyisonicotinaldehyde]
